Measured values from patent publication US10588844B2, “Process for preparing tripeptide containing oleanolic acid and its therapeutic applications thereof” (priority 2017, dated 2020).
≈ marks a conversion by molar mass, not a printed value.

Key:
THP-1 cells = experiment: Cell viability of THP-1 cells in the anti inflammatory assay; type: cell-based, human
[1] = test system: TNF-α secretion by THP-1 human monocytes; experiment: Anti inflammatory activity: LPS induced TNF-α secretion in THP-1 cells (ELISA); type: cell-based; conditions: for % Inhibition (TNF-α): LPS stimulated THP-1, 24 hour
Description: Anti inflammatory activity was examined using human monocyte/macrophage cell line THP-1. Monocytes respond to lipo-polysaccharides (LPS) by secreting pro-inflammatory cytokines. Tumour necrosis factor (TNF-α) is one of the principle cytokine which triggers a cascade of inflammatory reactions. The concentration of TNF-α was measured using an Enzyme linked Immunosorbent assay (ELISA). Reduction in TNF-α concentration indicates an anti inflammatory activity of the compound.
Cells: THP1-human monocytes purchased from American Type Culture Collection (ATCC, Manassas, Va.) and maintained as a monolayer culture in Rosewell park memorial institute Medium (RPMI Life technologies, CA, USA) supplemented with 10% (v/v) heat-inactivated foetal bovine serum (FBS; GIBCO/Invitrogen, Carlsbad, Calif.), 100 units/mL penicillin and 100 μg/mL streptomycin (Life technologies) at 37° C. in a humidified 5% CO2 incubator.
ELISA kit: Human TNF ELISA kit, Krishgen Biosciences, USA
1×10^5 THP-1 cells were stimulated with 100 ng with lipopolysacharide (LPS, 0.1 μg/mL) to induce TNF-α secretion. Cells were pre treated with different concentrations of oleanoyl KVK before LPS treatment. The cell supernatants were collected 24 hour after treatment and secreted TNF-α as estimated by cytokine ELISA as described by the manufacturer. Un-stimulated cells were used as negative control. The limit of detection was <1 pg/mL.

[2] = biological target: T1, Elastase enzyme from pig pancreas (Sus scrofa, UniProt P00772); experiment: Anti elastase activity (EnzChek DQ elastin fluorescence assay); type: biochemical
T1 construct: purchased; host or cells: pig pancreas
T1 sequence (P00772 27-266): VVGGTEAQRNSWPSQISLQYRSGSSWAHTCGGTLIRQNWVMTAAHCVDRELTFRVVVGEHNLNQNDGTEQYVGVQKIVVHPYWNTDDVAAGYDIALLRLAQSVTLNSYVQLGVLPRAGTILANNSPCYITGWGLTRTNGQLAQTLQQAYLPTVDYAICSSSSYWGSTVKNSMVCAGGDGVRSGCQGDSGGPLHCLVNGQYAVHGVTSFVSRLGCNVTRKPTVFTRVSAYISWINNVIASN
Description: Elastase is one of the […], which digest elastin and other components of the extra cellular matrix and is important both for normal skin development. If this enzyme is not regulated by inhibitor proteins results in wrinkling of skin, premature ageing and carcinogenesis. The Anti-Elastase assay by Enz Chek elastase assay kit determines the elastase inhibitory activity of the products. The assays were done using the EnzChek elastase assay kit. The substrate is DQ elastin soluble bovine neck ligament. DQ elastin is labelled with BODIPY FL dye. The non-fluorescent substrate can be digested by elastase to yield highly fluorescent fragments and in the presence of inhibitor, the fluorescence intensity is quenched. The fluorescence intensity was measured in a microplate reader ([…].)
The assay was performed in a 96 well black microtitre plate. […] 100 μl of the Elastase enzyme solution (final concentration-0.1 U/ml) was added and the fluorescence intensity was measured at Em: 485 nm and Ex: 520 nm after 30 minutes. Enzyme activity of control (buffer) was recorded.
[formula] • B—Fluorescence in the presence of enzyme • BC—Fluorescence in the absence of enzyme activity • T—Fluorescence of enzyme activity in the presence of inhibitor • C—Fluorescence of the inhibitor alone Result

collagen in fibroblasts = experiment: Collagen production / collagen staining in fibroblasts; type: cell-based, human
[3] = test system: Human keratinocytes (HaCAT); experiment: Protection against UVB induced apoptosis, DNA damage and death (annexin-FITC/PI flow cytometry); type: cell-based; conditions: UVB exposed HaCAT
Description: Cells: Human keratinocytes (HaCAT)—cells were maintained as a monolayer culture in Dulbeccos modified minimal essential medium (DMEM) Life technologies, CA, USA) supplemented with 10% (v/v) heat-inactivated foetal bovine serum (FBS; GIBCO/Invitrogen, Carlsbad, Calif.), 100 units/mL penicillin and 100 μg/mL streptomycin (Life technologies) at 37° C. in a humidified 5% CO2 incubator.
Reagents: Dulbeccos modified minimal essential medium (DMEM), Fetal bovine serum (FBS), Annexin-FITC, Propidium Iodide-Apoptosis detection kit, Biovision, USA.
Instrument: Flow Cytometry (BD-FACS-Celesta).
Cells (3×10^5) were pre-treated with different concentrations of test sample for one hour and exposed to UVB. Cells were exposed to UVB rays for 10 min and incubated for 16 hours in DMEM with 2% serum. Cells were labelled with annexin-FITC and propidium iodide […] for 10 minutes in dark and analyzed using flow cytometer (BD FACS-Celesta).

[4] = test system: Collagenase Type IV from Clostridium histolyticum; experiment: Anti collagenase activity (EnzChek DQ gelatin fluorescence assay); type: biochemical
Description: Collagenase is one of the matrix metalloprotease, which digest collagen and other components of the extra cellular matrix (ECM). The ECM serves as a scaffold to stabilize the skin structure, and also helps in proliferation and metabolic functions of the skin cells. Loss of collagen leads to wrinkles and sagging of skin. The principle of the assay of collagenase inhibition is based on the fact that the substrate DQ™ gelatine is conjugated to fluorecein—a fluorescent compound. In DQ™ gelatine, fluorescence is quenched. DQ™ gelatine is efficiently digested by collagenases to yield a fluorescent compound which can be measured. The increase in fluorescence is proportional to enzyme activity. In the presence of an anti collagenase compound the amount of fluorescence will be decreased for a fixed concentration of enzyme and substrate.
• Equipment-BMG FLUOstar Optima (fluorescent Microplate reader) • Reagents: Phosphate buffer (pH 7.4) • Collagenase Enzyme assay kit (Enzchek® collagenase, gelatinase assay kit, Invitrogen, USA) • Microtitre plates—96 well microtitre plates (black)—Corning, USA
The assay was performed in a 96 well black microtitre plate. […] 100 μl of the Collagenase enzyme solution (final concentration-0.4 U/ml) was added and the fluorescence intensity was measured at Em: 485 nm and Ex: 520 nm after 30 minutes. Enzyme activity of control (buffer) was recorded. […]

Human dermal fibroblasts [5] = experiment: Gene expression analysis in dermal fibroblasts (quantitative RT-PCR); type: cell-based; conditions: 6.25 μg/ml, 24 hours
Description: (§1) Human dermal fibroblasts and keratinocytes were cultured in 6 well microtiter plates in the presence of 6.25 μg/ml oleanoyl KVK for 24 hours. Untreated cells were used as control. At the end of incubation time, the cells were lysed and RNA was extracted. […] Extracted RNA was treated with DNAse I to remove any contaminating DNA and again extracted using phenol: chloroform: isoamyl alcohol extraction ([…]). Quality of RNA was determined by checking the absorbance at 260/280 nm using a Nanodrop (Thermo). 2 μg of total RNA was taken for cDNA synthesis using Super Script III First-Strand Synthesis System (Life Technologies). Quantitative RT-PCR analysis was performed to determine the expression of brown fat specific genes in Roche Light cycler 96 using SYBR Green master mix (Thermo Scientific). β actin was used as a house keeping gene. The relative RNA abundance of the genes was normalized to the housekeeping β actin gene and expressed as delta delta CT (equivalent to fold change transformed by Log2).

[6] = test system: Human keratinocytes (HaCAT); experiment: ROS scavenging in keratinocytes, heavy metal induced oxidative stress; type: cell-based; conditions: concentration of 12.5% (so in the source)
Description: (§2) Cells: Human keratinocytes (HaCAT)—cells were maintained in fibroblast media (Gibco) at 37° C. in a humidified 5% CO2 incubator.
(§3) Reactive oxygen species include a number of molecules that damage DNA and RNA and oxidize proteins and lipids (lipid peroxydation). These reactive molecules contain an oxygen atom/molecule and include H2O2 (hydrogen peroxide), NO (nitric oxide), O2^− ([…]), peroxynitrite (ONOO^−), hydrochlorous acid (HOCl), and hydroxyl radical (OH). 5-(and 6)-chloromethyl-20, 70-dichlorohydrofluorescein diacetate (CM-H2DCFDA) freely permeates the plasma membrane and is hydrolyzed in the cytosol to form the DCFH carboxylate anion. Oxidation results in the formation of fluorescent DCF, which is maximally excited at 495 nm and emits at 520 nm.
Keratinocytes were seeded at 50,000 cells per well in 96 well black plates and allowed to grow as a monolayer for 24 hours. Cells were pre-treated with different concentration of Oleanoyl-KVK for one hour. […] Freshly prepared DCFH-DA reagent was added to all the wells (2 ug/well). The plate was incubated at 37° C. for 30 minutes. Fluorescence was recorded at 485:520, Ex: Em wavelength in FluoStar Optima microplate reader.

[7] = test system: keratinocytes exposed to oxidative stress; experiment: Gene expression in keratinocytes exposed to oxidative stress (quantitative RT-PCR); type: cell-based, human; conditions: cells exposed to oxidative stress
Description: as §1

[8] = test system: Human keratinocytes (HaCAT); experiment: ROS scavenging in keratinocytes, UV induced oxidative stress (DCFH-DA); type: cell-based; conditions: 6.25 μg/ml
Description: as §2
Reagents: Keratinocyte media (Gibco) DCFH-DA Instrument: FluoStar Optima microplate reader.
as §3
Keratinocytes were seeded at 50,000 cells per well in 96 well black plates and allowed to grow as a monolayer for 24 hours. Cells were pre-treated with different concentration of Oleanoyl-KVK for one hour. The plate was exposed to UVA radiation for 1 hour. Freshly prepared DCFH-DA reagent was added to all the wells (2 ug/well). The plate was incubated at 37° C. for 30 minutes. Fluorescence was recorded at 485:520, Ex: Em wavelength in FluoStar Optima microplate reader.

Human dermal fibroblasts [9] = experiment: Proliferation of fibroblasts (SRB assay); type: cell-based; conditions: concentration of 12.5% (so in the source), 72 hours
Description: Human dermal fribroblasts were seeded at a density of 5×10^3 cells/well in DMEM 10% FBS and antibiotics in 96 well plate and allowed to form a monolayer in a humidified incubator at 37° C. and 5% CO2 atmosphere for 24 hours. Cells were treated with different concentration of the extract for 72 hours to assess the cytotoxicity. The viability of fibroblasts were determined by SRB assay (Nature protocols, 2006, 1, 3, 2112-16). Cells in DMEM with 0.1% DMSO was used as […] while media without cells were used as negative control

[10] = test system: TGF-β secretion by fibroblasts; experiment: TGF-β concentration in fibroblast culture supernatant; type: cell-based, human
keratinocytes = experiment: Gene expression analysis in keratinocytes (quantitative RT-PCR); type: cell-based, human; conditions: 6.25 μg/ml, 24 hours
Description: as §1

Work on `CC(C)[C@H](NC(=O)[C@H](CCCCN)NC(=O)[C@]12CCC(C)(C)C[C@H]1C1=CC[C@@H]3[C@@]4(C)CC[C@H](O)C(C)(C)[C@@H]4CC[C@@]3(C)[C@]1(C)CC2)C(=O)N[C@@H](CCCCN)C(=O)O` [Oleanoyl-KVK, Lysine-Valine-Lysine (KVK) conjugated to Oleanolic acid] yielded a Cell viability (THP-1 cells; 1.56 μg/ml) of 100%, a Cell viability (THP-1 cells; 3.12 μg/ml) of 100% and a Cell viability (THP-1 cells; 6.25 μg/ml) of 100%. The Cell viability (THP-1 cells; 12.5 μg/ml) was 100%, the “% Inhibition (TNF-α)” value ([1]; 1.56 μg/ml) was 12.14% and the “% Inhibition (TNF-α)” value ([1]; 3.12 μg/ml) was 12.53%. The “% Inhibition (TNF-α)” value ([1]; 6.25 μg/ml) was 31.01%, the “% Inhibition (TNF-α)” value ([1]; 12.5 μg/ml) was 71.03% and the “IC50 anti inflammatory activity” value ([1]; LPS stimulated THP-1, TNF-α ELISA) was 9.09 µg/mL (≈ 11.2 µM). For the same molecule, the inhibition at 250 µg/mL ([2]; 250 μg/ml) was 98%, the IC50 ([2]; DQ elastin substrate, 30 minutes, read-out: IC50 anti elastase activity (printed: anti collagenase activity) (converted)) was 77 µM and the “increase in collagen staining in fibroblasts” value (collagen in fibroblasts) was 22.8%. The “percent protection against UV induced DNA damage and death” value ([3]; 12.5 μg/ml) was 47.9%, the “reduction in late apoptosis” value [3] was “concentration dependent reduction in late apoptosis” and the “increase in live cells” value ([3]; 12.5 μg/ml) was “highest increase in live cells”. For the same molecule, the “reduction in early apoptosis” value ([3]; maximum at 12.5 μg/ml) was “concentration dependent reduction in early apoptosis”, the “inhibition of collagenase enzyme activity” value ([4]; 250 μg/ml) was 100% and the “IC50 anti collagenase activity” value ([4]; DQ gelatin substrate, 30 minutes) was 48.8 µg/mL. For the same molecule, the “expression level of TGF-β” value (Human dermal fibroblasts [5]) was “increased”, the “expression level of collagen” value (Human dermal fibroblasts [5]) was “increased” and the “expression level of hyaluronan synthase” value (Human dermal fibroblasts [5]) was “increased”. The “ROS scavenging, induced by heavy metals” value [6] was 20.4%, the “expression level of matrix metalloprotease 9” value [7] was “down regulated” and the “expression level of tumor necrosis factor α” value [7] was “down regulated”. For the same molecule, the “ROS scavenging activity, UV induced stress” value [8] was 17.1%, the “increase in proliferation of fibroblasts” value (Human dermal fibroblasts [9]) was 42.2% and the “TGF-β secretion by fibroblasts” value [10] was “dose dependent increase”. The “gene expression in keratinocytes (FIG. 10: collagen, Elastin, TGF-β, hyaluronan synthase, epidermal growth factor)” value (keratinocytes) was “increased”.
